Laboratory results taken from patent publication US20140242707A1, “Compositions and Methods for Diagnosing Hypercoagulability and Hypocoagulability” (Philadelphia Health & Education Corporation d/b/a Drexel …, priority 2011, published 2014).
Read-outs that look alike come from different tables or passages of the source.

How the values were obtained:
horse plasma = assay: Thrombelastography of horse plasma, coagulation study (no tPA); assay type: biochemical; design: increase in TTG vs control / decrease in MRTG vs control / decrease in TTG vs control / decrease in MRTG vs control sample / decrease in TTG vs control sample / increase in MRTG vs control sample / increase in TTG vs control sample: concentration or dose not given beside the values; settings: for MRTG / TMRTG / TTG / MA / R / α: PHA 10 mM, CORM-2 100 μM
Description: Blood was collected directly into plastic tubes containing 0.105 M sodium citrate (9:1, v/v) from the jugular vein of ten clinically normal grade and American Quarter Horse mares between 400 and 600 kg. Three additional horses to be subsequently described with acute gastrointestinal disease had blood samples similarly collected. The mares were group-housed in corrals. Plasma was obtained by centrifugation of citrated whole blood at 3000×g for 15 minutes and immediately frozen at −80° C. Plasma was subsequently shipped on dry ice and stored at −80° C. until thrombelastographic analysis.
The final volume for all subsequently described plasma sample mixtures was 359.6 μl. Sample composition for this series of experiments consisted of 326 μl of plasma; 10 μl of tissue factor reagent (0.1% final concentration in dH2O; Diagnostica Stago S.A.S., Asnieres sur Seine, France); 3.6 μl of dH2O, or 3.6 μl dH2O containing the heme-binding reductant phenylhydroxylamine (PHA, 10 mM final concentration, Sigma-Aldrich, Saint Louis, Mo., USA), or 3.6 μl of dimethyl sulfoxide with CORM-2 (100 μM final concentration; Sigma-Aldrich, Saint Louis, Mo., USA); and 20 μl of 200 mM CaCl2. As previously described in human plasma (McMichael et al., 2011, Blood Coagul Fibrinolysis, 22: 424-430), this diagnostic panel is designed to determine hemostatic kinetic changes following of formation of carboxyhemefibrinogen (Fe^+2 state) after exposure to CO released from CORM-2 and to determine the effects of formation of methemefibrinogen (Fe^+3 state) after exposure to PHA. The relative change from baseline kinetics caused by exposure to CORM-2 and PHA allow determination of the balance between oxy/carboxy/methemefibrinogen concentrations in human plasma (McMichael et al., 2011, Blood Coagul Fibrinolysis, 22: 424-430).
Plasma sample mixtures were placed in a disposable cup in a computer-controlled Thrombelastograph® hemostasis system (Model 5000, Haemoscope Corp., Niles, Ill., USA), with addition of CaCl2 as the last step to initiate clotting. Data were collected at 37° C. for 15 min in the first series of experiments involving coagulation alone, whereas in the experiments involving fibrinolysis data were collected until clot lysis time was observed. Elastic modulus-based parameters previously described were determined (Nielsen et al., 2009, Blood Coagul Fibrinolysis, 20: 377-380; Nielsen et al., 2009, Blood Coagul Fibrinolysis, 20: 448-455). The nomenclature used to describe these phenomena is as follows:
Time to maximum rate of thrombus generation (TMRTG): This is the time interval (min) observed prior to maximum speed of clot growth.
Maximum rate of thrombus generation (MRTG): This is the maximum velocity of clot growth observed (dynes/cm^2/sec).
Total Thrombus Generation (TTG): This is the total area under the velocity curve during clot growth (dynes/cm^2), representing the amount of clot strength generated during clot growth.
Thrombelastographic data are presented as mean±SD or as individual animal parameter values as appropriate. The effects of addition of CORM-2 and PHA on coagulation and fibrinolytic kinetic parameters were analyzed with one way repeated measures analysis of variance, utilizing Holm-Sidak post hoc test (SigmaStat 3.1, Systat Software, Inc., San Jose, Calif., USA) as appropriate. A P value of <0.05 was considered significant.

human or rabbit plasma = settings: 100 μM CORM-2, humans or rabbits; cited from earlier work
human plasma = settings: fibrinolytic environment; cited from earlier work
ear bleeding time = settings: CORM-2 intravenously, cited from earlier work
[1] = horse with lethal disease, no tPA
[2] = horse with lethal enteritis, no tPA
[3] = horse with mild disease, no tPA
[4] = horse with mild enteritis, no tPA
[5] = horse with moderate disease, no tPA
[6] = horse with moderate enteritis, no tPA

SMILES | MRTG (horse plasma; [1]) | TMRTG (horse plasma; [1]) | TTG (horse plasma; [1]) | MRTG (horse plasma; [3]) | TMRTG (horse plasma; [3]) | TTG (horse plasma; [3]) | MRTG (horse plasma; [5]) | TMRTG (horse plasma; [5]) | TTG (horse plasma; [5]) | MA (horse plasma; normal horses) | MRTG (horse plasma; normal horses) | R (horse plasma; normal horses) | TMRTG (horse plasma; normal horses) | TTG (horse plasma; normal horses) | α (horse plasma; normal horses) | other results
[C-]#[O+].[C-]#[O+].[C-]#[O+].[C-]#[O+].[C-]#[O+].[C-]#[O+].[Cl][Ru][Cl].[Cl][Ru][Cl] [CORM-2, tricarbonyldichlororuthenium (II) dimer] | 5.0 dynes/cm^2/sec | 3.7 min | 126 dynes/cm^2 | 10.2 dynes/cm^2/sec | 2.9 min | 308 dynes/cm^2 | 9.1 dynes/cm^2/sec | 2.4 min | 238 dynes/cm^2 | 40.4 ± 3.4 | 13.0 ± 2.9 dynes/cm^2/sec | 2.0 ± 0.4 | 2.8 ± 0.5 min | 342 ± 48 dynes/cm^2 | 80.2 ± 2.1 | increase in MRTG vs control sample (horse plasma; [2]): 67%; increase in TTG vs control sample (horse plasma; [2]): 97%; increase in MRTG vs control sample (horse plasma; [4]): 16%; increase in TTG vs control sample (horse plasma; [4]): 25%; increase in MRTG vs control sample (horse plasma; [6]): 28%; increase in TTG vs control sample (horse plasma; [6]): 47%; increase in TTG vs control (horse plasma; normal horses, no tPA): 9%; increase in MRTG (human or rabbit plasma): 64-100%; increase in TTG (human or rabbit plasma): 51-68%; increase in MRTG (human plasma): 120%; increase in TTG (human plasma): 113%; ear bleeding time (ear bleeding time; rabbits administered intravenous tPA): near normal; ear bleeding time (ear bleeding time; rabbits with platelet inhibition by aspirin and clopidogrel): normal
ONc1ccccc1 [PHA, phenylhydroxylamine] | 0.1 dynes/cm^2/sec | 8.2 min | 2 dynes/cm^2 | 4.8 dynes/cm^2/sec | 3.9 min | 177 dynes/cm^2 | 3.9 dynes/cm^2/sec | 3.5 min | 126 dynes/cm^2 | 24.6 ± 2.7 | 6.2 ± 1.7 dynes/cm^2/sec | 2.4 ± 0.4 | 3.4 ± 0.6 min | 166 ± 23 dynes/cm^2 | 71.7 ± 3.6 | effect on coagulation (horse plasma; [2]): essentially extinguished coagulation; decrease in MRTG vs control sample (horse plasma; [4]): 45%; decrease in TTG vs control sample (horse plasma; [4]): 28%; decrease in MRTG vs control sample (horse plasma; [6]): 45%; decrease in TTG vs control sample (horse plasma; [6]): 22%; decrease in MRTG vs control (horse plasma; normal horses, no tPA): 54%; decrease in TTG vs control (horse plasma; normal horses, no tPA): 47%; decrease in MRTG (human plasma): 30%; decrease in TTG (human plasma): 21%
